The subject of data set [1] is human breast cancer LM2-4H2N cells. Put plainly: Breast cancer orthotopic implantation / resection survival model. The data set is classed as in vivo, SCID-Beige mice. The settings on record: post-surgery adjuvant, 25 mg/kg daily oral gavage five times/week. How it is done: Cohorts of N=12 athymic mice bearing human PCa PC3-M cell orthotopic implants (a), or of N=5 non-tumor bearing athymic mice (b), were treated with KBU2046 incorporated into chow, and resultant lung metastasis (a) or plasma KBU2046 concentration (b) measured. Values are the mean±SEM. The relationship between dose and metastasis was evaluated by two-sided ANOVA (a). FIG. 2c a comprehensive characterization of KBU2046 pharmacokinetics. CD1 mice were dosed with 100 mg KBU2046/kg via oral gavage or intravenous injection (iv), and blood collected at the indicated time points (data from mice dosed at 25 mg/kg are in FIG. 12, and corroborate 100 mg/kg findings). For each route and time point, N=3 mice were sampled. Individual data points are the resultant plasma concentrations from individual mice, and are the mean of N=2 measurements. The dotted horizontal line denotes a concentration of 24 nM, which was the concentration of KBU2046 measured in the blood of mice whose metastasis were suppressed by 92% (a-b). […] Mice were orthotopically implanted with human breast cancer LM2-4H2N cells, the resultant primary tumors resected, and adjuvant treatment begun with KBU2046 by daily oral gavage five times/week. The survival of N=6 mice receiving vehicle was compared to that of N=6 mice receiving 25 mg/kg KBU2046 by the log rank (Mantel-Cox) test.
Breast cancer: orthotopic implantation. […]

The test system of a further data set is NCI 60 cell line panel. Put plainly: NCI 60 cell line panel screening. The data set is classed as cell-based. Particulars: initial screening per DTP protocol. An excerpt:
KBU2046 was submitted to the Developmental Therapeutics Program (DTP) of the US National Cancer Institute (NCI), underwent initial screening across the NCI 60 cell line panel per DTP protocol (Shoemaker, R. H., Nat Rev Cancer 6, 813-23 (2006)) and the resultant COMPARE diagram is depicted herein.

The test system of data set [2] is RAF1 in PC3 and PC3-M cells. Put plainly: RAF1-Ser338 phosphorylation in prostate cancer cells (Western blot). The data set is classed as cell-based, human. The settings on record: 10 μM. Here is the method: PC3 and PC3-M human prostate cancer cells were treated with 10 μM KBU2046 for the indicated lengths of time; control cells (C) were treated with vehicle. Levels of RAF1-Ser^338 phosphorylation (pRaf1), total RAF1, and GAPDH proteins were then measured by Western blot.

The subject of data set [3] is human PCa PC3-M cell orthotopic implants. The data set can be described thus: Murine orthotopic implantation model of human PCa (lung metastasis). The data set is classed as in vivo, athymic mice. Particulars: mice treated as in FIG. 2a. How it is done: Cohorts of N=12 athymic mice bearing human PCa PC3-M cell orthotopic implants (a), or of N=5 non-tumor bearing athymic mice (b), were treated with KBU2046 incorporated into chow, and resultant lung metastasis (a) or plasma KBU2046 concentration (b) measured. Values are the mean±SEM. The relationship between dose and metastasis was evaluated by two-sided ANOVA (a). FIG. 2c a comprehensive characterization of KBU2046 pharmacokinetics. CD1 mice were dosed with 100 mg KBU2046/kg via oral gavage or intravenous injection (iv), and blood collected at the indicated time points (data from mice dosed at 25 mg/kg are in FIG. 12, and corroborate 100 mg/kg findings). […] The dotted horizontal line denotes a concentration of 24 nM, which was the concentration of KBU2046 measured in the blood of mice whose metastasis were suppressed by 92% (a-b). […]
Prostate cancer: orthotopic implantation. Orthotopic implantation of human GFP-PC3-M PCa cells into 6-8 week male Balb/c athymic mice (Charles River Laboratories) and quantification of distant metastasis was performed as described (Pavese, J. et al., J Vis Exp, e50873 (2013)). […] Metastasis were scored in a blinded fashion. Specifically, animals were assigned an ID number, resultant histologic slides contained a separate pathological ID number, slides were scored in a random fashion, after which the two numbers were linked up.

From patent US20210293825A1, “METHODS FOR PRECISION THERAPEUTIC TARGETING OF HUMAN CANCER CELL MOTILITY AND KITS THEREOF” (UNITED STATES GOVERNMENT AS REPRESENTED BY THE DEPARTMENT …, priority 2018, published 2021) come the findings set out here.

As for `O=C1c2ccccc2OCC1c1ccc(F)cc1` (racemic) [KBU2046, (±)-3(4-fluorophenyl)chroman-4-one], in data set [1], the survival entry is recorded as “significantly prolonged the survival”. For the same compound, the cell toxicity entry in the data set on NCI 60 cell line panel was “minimal-to-no cell toxicity”. Also, the “levels of phospho-RAF1” value in data set [2] is on record as “decreased levels of phospho-RAF1 in a time-dependent manner”. Further, in data set [3], the “primary tumor growth (tumor weight)” value was “does not inhibit primary tumor cell growth”.
